In ChEMBL document CHEMBL1150906, “Cytotoxic and insecticidal constituents of the unripe fruit of Persea americana” (J Nat Prod, 1998):
≈ marks a conversion by molar mass, not a printed value.

What was measured:
Aedes aegypti = test: Insecticidal activity against yellow fever mosquito larvae […] in bovine liver powder after 4 days by MES assay; type: functional; conditions: 96 h
MIA PaCa-2 = test: Cytotoxicity against human MIAPaCa2 cells by MTT assay; type: functional, cell-based
A549 = test: Cytotoxicity against human A549 cells by MTT assay; type: functional, cell-based
MCF7 = test: Cytotoxicity against human MCF7 cells by MTT assay; type: functional, cell-based
PC-3 = test: Cytotoxicity against human PC3 cells by MTT assay; type: functional, cell-based
A498 = test: Cytotoxicity against human A498 cells by MTT assay; type: functional, cell-based
[1] = Toxicity in Artemia salina; type: organism-based; conditions: in vivo
HT-29 = test: Cytotoxicity against human HT-29 cells by MTT assay; type: functional, cell-based

| SMILES | LC50 (Aedes aegypti) [µg/mL] | IC50 (MIA PaCa-2) [µg/mL] | IC50 (A549) [µg/mL] | IC50 (MCF7) [µg/mL] | IC50 (PC-3) [µg/mL] | IC50 (A498) [µg/mL] | LC50 [1] [µg/mL] | IC50 (HT-29) [µg/mL] |
| --- | --- | --- | --- | --- | --- | --- | --- | --- |
| CCCCCCCCCCCCCCCC(O)CC(O)CO (stereo unspecified) | 1.8 (≈ 5.69 µM) | > 10 | 3 (≈ 9.48 µM) | 3.2 (≈ 10.1 µM) | 1.2 (≈ 3.79 µM) | 2.7 (≈ 8.53 µM) | 2.8 (≈ 8.85 µM) | 3 (≈ 9.48 µM) |
| C=CCCCCCCCCCCCC(O)CC(O)CO (stereo unspecified) [AVOCADENE] | 0.21 (≈ 0.733 µM) | 5.3 (≈ 18.5 µM) | 3.4 (≈ 11.9 µM) | 4.4 (≈ 15.4 µM) | 0.46 (≈ 1.61 µM) | 3.6 (≈ 12.6 µM) | 1.3 (≈ 4.54 µM) | 2.6 (≈ 9.08 µM) |
| C#CCCCCCCCCCCCC(O)CC(O)CO (stereo unspecified) [AVOCADYNE] | 0.077 (≈ 0.271 µM) | > 10 | 4.8 (≈ 16.9 µM) | 6.5 (≈ 22.9 µM) | 0.061 (≈ 0.214 µM) | 4.1 (≈ 14.4 µM) | 0.64 (≈ 2.25 µM) | 8.9 (≈ 31.3 µM) |
| COc1cccc2c1C(=O)c1c(O)c3c(c(O)c1C2=O)C[C@@](O)(C(=O)CO)C[C@@H]3O[C@H]1C[C@H](N)[C@H](O)[C@H](C)O1 [DOXORUBICIN] |  | 0.0024 (≈ 0.00442 µM) | 0.0022 (≈ 0.00405 µM) | 0.081 (≈ 0.149 µM) | 0.011 (≈ 0.0202 µM) | 0.0049 (≈ 0.00902 µM) |  | 0.0053 (≈ 0.00975 µM) |
| C=C(C)[C@H]1Cc2c(ccc3c2O[C@@H]2COc4cc(OC)c(OC)cc4[C@@H]2C3=O)O1 [ROTENONE] | 0.75 (≈ 1.9 µM) |  |  |  |  |  |  |  |
